TGI and GI50 data for 24 compounds are collected here from PubChem BioAssay (NCI).

Where “and” joins values, the source holds several entries; their conditions need not be identical. Equal entries are not always repeated.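 Assay format: 96-well plates, 48-hour exposure. GI50 = concentration required for 50% inhibition of growth. TGI marks complete inhibition of growth.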 Where a SMILES comes first, the peptide text is derived from it. The star is where a group is joined. Cbz = O=C(OCc1ccccc1)* Bounds are passed on as bounds.

Common to all, as to test: NCI-60 cell line screen, 48 h
Experiment [1] relates to A498 renal.
The test system of experiment [2] is SNB-19 CNS.
Experiment [3] has as its system IGROV1 ovarian.
For experiment [4], the system named is A549 NSCLC.
Experiment [5] relates to OVCAR-5 ovarian.
The test system of experiment [6] is K-562 leukemia.
Experiment [7] deals with HOP-62 NSCLC.
Experiment [8] has as its system SN12C renal.
In experiment [9] the test system is LOX IMVI melanoma.
Experiment [10] has as its system U251 CNS.
For experiment [11], the system named is COLO 205 colon.
Experiment [12] relates to DU-145 prostate.
For experiment [13], the system named is BT-549 breast.

`Nc1c(S(=O)(=O)c2ccccc2)c2nc3ccccc3nc2n2c1nc1ccccc12`: the TGI in [1] was > 100 µM; in experiment [2] it was > 93.2 µM; in [3], 98.9 µM; in [4] it was > 100 µM; in experiment [5], > 100 µM; in experiment [6], > 100 µM. Further, the TGI was > 49.6 µM in experiment [7]; > 87.2 µM in [8]; > 100 µM in experiment [9]; > 47.5 µM in experiment [10]; > 100 µM in [11].

For the compound `CC1(C)O[C@H]2OC(CO)C(N=[N+]=[N-])[C@H]2O1` (some centres not stated), the TGI in [1], in [2], in experiment [3], in experiment [4], in experiment [5] and in experiment [7] was > 100 µM throughout. Also, the TGI in experiment [8], in [9], in experiment [10], in [12] and in [11] was > 100 µM throughout.

Regarding `N[C@H](Cc1ccc2oc3cc(=O)c4ccccc4c-3nc2c1)C(=O)O`, the TGI in experiment [1] was > 100 µM; in [2] it was > 100 µM; in experiment [3], > 100 µM; in [4] it was > 100 µM; in experiment [5], > 100 µM; in experiment [6] it was 71.2 µM. Further, the TGI was > 100 µM in experiment [7]; > 100 µM in experiment [8]; > 100 µM in [9]; > 100 µM in experiment [10]; 51.7 µM in [12]; > 100 µM in [11].

Turning to `Cc1ccc(NC(=O)C(=O)C2C(=O)NC(=O)NC2=O)cc1C`, the TGI in experiment [2], in [3], in experiment [4], in experiment [5], in [6] and in experiment [7] was > 100 µM throughout. Besides, the TGI in experiment [8], in [9], in experiment [10] and in experiment [11] was > 100 µM each time.

Turning to `O=C1c2ccccc2C(=O)N1C/C=N/NS(=O)(=O)c1ccc(Br)cc1`, the TGI in experiment [1], in experiment [2], in experiment [3], in experiment [4], in experiment [5] and in experiment [6] was > 100 µM each time. Besides, the TGI in experiment [7], in [8], in experiment [10] and in experiment [11] was > 100 µM throughout.

Turning to `C=C1CCCCCCCCC/C=C/1SCCCSC`, the TGI in [1], in experiment [2], in experiment [3], in [4], in experiment [5] and in experiment [6] was > 100 µM in each case. The TGI in experiment [7], in [8], in experiment [9], in experiment [10], in experiment [12] and in experiment [11] was > 100 µM each time.

Turning to `COc1ccc(N2C(=O)C(=O)N(c3ccc(N=Nc4ccccc4)cc3)C2=S)cc1`, the TGI in experiment [1] is 52.3 µM; in experiment [2], 53.4 µM; in experiment [3] it was 31.3 µM; in [4], 41.2 µM; in experiment [5], 44.6 µM; in experiment [6] it was > 100 µM. Also, the TGI in experiment [7] worked out at 34.6 µM; in [8], 33.2 µM; in [9], 37.2 µM; in [10], 32.6 µM; in experiment [12], 34.3 µM; in experiment [11], 31.4 µM.

In the case of `CC1(C)OP(=O)(O)C=C1Sc1ccc([N+](=O)[O-])cc1[N+](=O)[O-]`, the TGI in experiment [1], in [2], in [3], in experiment [4], in [5] and in [6] was > 100 µM each time. The TGI in experiment [7], in [8], in experiment [9], in experiment [10], in experiment [12] and in [11] was > 100 µM throughout.

`CC(=O)c1ccc2c(c1)C(=O)c1sc(C(C)=O)cc1C2=O`: the TGI in experiment [1] is 50 µM; in [2], 1.66 µM and 2.61 µM; in experiment [3], 2.55 µM and 1.59 µM; in [4], 9.41 µM and 7.41 µM; in [5] it was 2.36 µM and 3.92 µM; in experiment [6], 50 µM and > 100 µM. In addition, the TGI is 8.16 µM and 7.25 µM in experiment [7]; 2.18 µM and 4.76 µM in [8]; 2.12 µM in experiment [9]; 50 µM in experiment [10]; 2.12 µM and 3 µM in experiment [12]; 7.94 µM in experiment [11]. Besides, the GI50 in experiment [2] is 1.34 µM; in experiment [3], 0.43 µM; in experiment [5], 1.87 µM; in [6] it was 0.264 µM; in [7], 2.35 µM; in experiment [8] it was 0.953 µM. The GI50 in [12] is 1.54 µM.

Turning to `C[n+]1c2ccccc2c(NC(CCCN=C(N)N)C(=O)O)c2ccccc21` (configuration not stated), the TGI in experiment [1], in experiment [2], in experiment [3], in experiment [4], in experiment [5] and in [6] was > 100 µM each time. The TGI in experiment [7], in [8], in experiment [10] and in experiment [11] was > 100 µM each time.

As to `COc1ccc2nc3cc(Cl)ccc3c(Sc3ccc(NC(C)=O)cc3)c2c1`, the TGI in experiment [1] is > 60.9 µM; in [2] it was > 26.4 µM; in experiment [3], > 56 µM; in [4] it was > 100 µM; in experiment [5], > 45.7 µM; in [6], > 100 µM. Moreover, the TGI in experiment [7] was > 60.2 µM; in [8], > 25.6 µM; in experiment [9], 11.4 µM; in [10] it was > 20.7 µM; in experiment [11] it was > 34.2 µM.

For `COc1cccc(-c2nc(-c3cnccn3)n(C/C=C/c3ccccc3)n2)c1`, the TGI in [2], in experiment [3], in experiment [4], in [5], in experiment [6] and in [8] was > 10 µM throughout. The TGI in [9], in experiment [10] and in experiment [13] was > 10 µM in each case.

As to `COc1cc(-c2nnc3n2NC=C(C(=O)O)S3)cc(OC)c1OC`, the TGI in experiment [1] was > 100 µM; in [2], > 100 µM; in experiment [3], > 100 µM; in experiment [4], > 100 µM; in [5], > 100 µM; in experiment [6] it was > 63 µM. Further, the TGI in experiment [7] is > 100 µM; in [8], > 100 µM; in experiment [9], > 100 µM; in experiment [10], > 100 µM; in experiment [11], > 70.3 µM.

In the case of `c1ccc2c(c1)OCCOCCOc1ccccc1OCCO2`, the TGI in [1], in experiment [2], in experiment [3], in [4], in experiment [5] and in experiment [6] was > 100 µM each time. Also, the TGI in experiment [7], in experiment [8], in experiment [9], in experiment [10] and in [11] was > 100 µM each time.

Turning to `CSc1ccc2c(cc1=O)[C@@H](NC(=O)c1cc(O)c(O)c(O)c1)CCc1cc(O)c(O)c(O)c1-2`, the TGI was > 100 µM in experiment [1]; > 100 µM in experiment [2]; 92 µM in experiment [4]; 31.3 µM in [5]; 18.9 µM in experiment [6]; > 100 µM in experiment [7]. In addition, the TGI in [8] worked out at 34.5 µM; in experiment [10], 37.7 µM; in [11], 75.3 µM.

`COc1ccc(/C=N/N=C(\N)NO)c(OC)c1C`: the TGI in experiment [1] is 87.6 µM; in experiment [2], > 100 µM; in experiment [3], > 100 µM; in experiment [4] it was 44.9 µM; in experiment [5], 7.69 µM; in experiment [6], > 100 µM. Moreover, the TGI in [7] was 36.7 µM; in experiment [8], > 100 µM; in [9], > 100 µM; in experiment [10] it was > 100 µM; in experiment [11], 30.7 µM.

Take `CCOC(=O)CCC(NC(=O)c1ccc(NCc2ccc3nc(-c4ccccc4)c(Cl)nc3c2)cc1)C(=O)OCC` (configuration not stated): the TGI was 78.6 µM in [1]; > 100 µM in [2]; > 100 µM in experiment [3]; > 100 µM in [4]; > 100 µM in experiment [5]; > 100 µM in experiment [6]. Also, the TGI in experiment [7] was > 100 µM; in experiment [8] it was > 100 µM; in experiment [9], > 100 µM; in experiment [10], > 100 µM; in [11] it was 41.7 µM.

In the case of `OC(C/C=N/N=C/CC(O)(C(F)(F)Cl)C(F)(F)Cl)(C(F)(F)Cl)C(F)(F)Cl`, the TGI in experiment [1], in [2], in [3], in experiment [4], in [6] and in experiment [7] was > 10 µM each time. The TGI in experiment [8], in experiment [9], in experiment [10], in experiment [12] and in experiment [11] was > 10 µM throughout.

As for `NC(=O)c1cn(Cc2ccccc2)c(=O)n1Cc1ccccc1`, the TGI in experiment [1], in [2], in experiment [3], in [4], in experiment [5] and in experiment [6] was > 100 µM in each case. Moreover, the TGI in experiment [7], in experiment [8], in [9], in [10] and in experiment [11] was > 100 µM throughout.

Consider `CC(=O)O[C@]12CCCCCC1C1(O)C(O)CCCCC12` (some centres not stated), for which the TGI in experiment [2], in experiment [4], in experiment [6], in [7], in [8] and in experiment [9] was > 100 µM throughout. Besides, the TGI in experiment [10] and in [11] was > 100 µM in each case.

`C1COCCSC2=C(SCCO1)SC(=C1SC3=C(SCCOCCOCCS3)S1)S2`: the TGI in experiment [1], in experiment [2], in [3], in experiment [4], in experiment [5] and in experiment [6] was > 100 µM throughout. Also, the TGI in experiment [7], in experiment [8], in experiment [9], in experiment [10] and in experiment [11] was > 100 µM each time.

For the compound `Cc1ccc2c(c1)CC1(Cc3cccc(C)c3C1=O)C2=O` (configuration not stated), the TGI in experiment [1], in [3], in experiment [4], in experiment [5], in experiment [6] and in experiment [7] was > 100 µM each time. Besides, the TGI in [8] is > 100 µM; in experiment [9], > 10 µM; in experiment [10], > 100 µM; in experiment [12] it was > 100 µM; in experiment [11], > 100 µM.

Turning to `C1=NC(N(Cc2ccccc2)Cc2ccccc2)N(Cc2ccccc2)N1` (configuration not stated), the TGI in experiment [1] was found to be 32.2 µM; in [2], 55.3 µM; in [3] it was 33.6 µM; in experiment [4], 37.3 µM; in experiment [5], 42 µM; in [6], 43.9 µM. The TGI in [7] was 32.7 µM; in [8], 34.1 µM; in [9], 30.4 µM; in experiment [10], 32.1 µM; in experiment [11], 30.8 µM.

On to `CCOC(=O)CCC(NC(=O)OCc1ccccc1)C(=O)NC(CCC(=O)OCC)C(=O)OCC` (configuration not stated) (Cbz-Glu(OEt)-Glu(OEt)-OEt; configuration not given here), for which the TGI in experiment [1], in experiment [2], in experiment [3], in [4], in [5] and in [6] was > 100 µM throughout. In addition, the TGI in experiment [7], in experiment [8], in experiment [9], in experiment [10], in experiment [12] and in experiment [11] was > 100 µM each time.
